Type in all cases: cell-based
Test [1] has as its system G-401 (human renal carcinoma Wilms cell). The test can be described thus: Cell viability assay (Promega CellTiter-Glo), inhibitory effect on G-401. Conditions: 72 h, 3 days of culture. Summed up: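 Cells grown in McCoy's 5a with 10% FBS were treated with gradient-diluted compounds after passage. Viability was read as intracellular ATP by CellTiter-Glo luminescence after 3 days of culture, and IC50 was determined from the dose series.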
Background: ATP-based viability assays read luminescence as a measure of living cells.

The test system of test [2] is SF126 (human glioblastoma multiforme cell). Description: Cell viability assay (Promega CellTiter-Glo), inhibitory effect on SF126. In a few lines:
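SF126 human glioblastoma cells grown in EMEM with 10% FBS were exposed to gradient-diluted compound for 3 days after passage. Viability was read as intracellular ATP by CellTiter-Glo luminescence, and IC50 taken as 50% inhibiting concentration.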

The test system of test [3] is 786-O (clear cell renal cell adenocarcinoma cell). The test can be described thus: Cell viability assay (Promega CellTiter-Glo), inhibitory effect on 786-O. Conditions: Homo sapiens, 786-0, 72 h, 3 days of culture. Summed up:
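786-O cells grown in RPMI1640 with 10% FBS and P/S, then exposed to serially diluted compounds after passage for 3 days. Viability read as intracellular ATP by CellTiter-Glo luminescence; IC50 derived.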

Test [4] has as its system NB-1 (brain neuroblastoma cell). Description: Cell viability assay (Promega CellTiter-Glo), inhibitory effect on NB-1. The following applies: Homo sapiens, 72 h, 3 days of culture, read-out: inhibitory effect on brain cell line NB-1 (IC50). Summed up: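 NB-1 cells grown in L-15 medium with 10% FBS were exposed to serially diluted compounds for 3 days after passage. Viability was read as intracellular ATP by CellTiter-Glo luminescence. IC50 was taken as the concentration giving 50% inhibition.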

For test [5], the system named is GB-1 (human brain glioblastoma cell). The test can be described thus: Cell viability assay (Promega CellTiter-Glo), inhibitory effect on GB-1. Conditions: 72 h, 3 days of culture. In a few lines: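 GB-1 cells were grown in DMEM with 10% FBS and given serially diluted compound after passage. Viability was read after 3 days of culture as intracellular ATP by CellTiter-Glo luminescence, and IC50 was derived.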

For test [6], the system named is CFPAC-1 (human pancreatic cancer cell). The test can be described thus: Cell viability assay (Promega CellTiter-Glo), inhibitory effect on CFPAC-1. Conditions: 72 h, 3 days of culture. In a few lines: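 CFPAC-1 human pancreatic cancer cells in IMDM with 10% FBS exposed to serially diluted compounds for 3 days. Viability measured as intracellular ATP by CellTiter-Glo luminescence; IC50 derived.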

The subject of test [7] is Kelly (brain neuroblastoma cell). The test can be described thus: Cell viability assay (Promega CellTiter-Glo), inhibitory effect on Kelly. The following applies: Homo sapiens, 72 h, 3 days of culture, read-out: inhibitory effect on brain cell line Kelly (IC50). Summed up: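 Kelly cells were cultured in RPMI1640 with 10% FBS and 2 mM glutamine, then treated with serially diluted compounds for 3 days. Viability was measured as intracellular ATP by CellTiter-Glo luminescence, and IC50 was derived from the dose-response.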

The test system of test [8] is NCI-H82 (human small cell lung cancer cell). Description: Cell viability assay (Promega CellTiter-Glo), inhibitory effect on NCI-H82. Conditions: 72 h, 3 days of culture. In a few lines: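 NCI-H82 cells grown in RPMI1640 with 10% FBS were exposed to serially diluted compound for 3 days. Viability was read as intracellular ATP by CellTiter-Glo luminescence, and the IC50 was taken as the concentration giving 50% inhibition.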

Test [9] has as its system MDA-MB-453 (breast cancer cell). The test can be described thus: Cell viability assay (Promega CellTiter-Glo), inhibitory effect on MDA-MB-453. Conditions: Homo sapiens, 72 h, 3 days of culture. Summed up: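 Cells grown in Leibovitz's L-15 with 10% FBS were given serially diluted compound after passage and cultured 3 days. Viability was read as intracellular ATP by CellTiter-Glo luminescence, and IC50 was derived.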

In test [10] the test system is D341 Med (cerebellar medulloblastoma cell). Description: Cell viability assay (Promega CellTiter-Glo), inhibitory effect on D341 Med. The following applies: Homo sapiens, 72 h, 3 days of culture, read-out: inhibitory effect on brain cell line D341 Med (IC50). Summed up:
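D341 Med cells grown in EMEM with 20% FBS (+P/S) were treated with serially diluted compounds after passage. Viability after 3 days of culture was read as intracellular ATP by CellTiter-Glo luminescence, and IC50 was derived.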

Test [11] has as its system SW48 (human colon adenocarcinoma cell). The test can be described thus: Cell viability assay (Promega CellTiter-Glo), inhibitory effect on SW48. The following applies: 72 h, 3 days of culture. Summed up:
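Cells grown in L-15 medium with 10% FBS and treated with serially diluted compounds for 3 days. Viability taken from intracellular ATP by CellTiter-Glo luminescence; IC50 derived.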

Test [12] concerns ov-NNMT NCI-H82 cell (NNMT protein-overexpressing NCI-H82). Description: Cell viability assay (Promega CellTiter-Glo), inhibitory effect on ov-NNMT NCI-H82 cell. Conditions: Homo sapiens. Summed up:
(§1)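 NCI-H82 lines: NNMT overexpressed via viral vector, DNMT1 knocked down by viral shRNA, control given empty vector; expression confirmed by Western blot. Compound effect on viability read by CellTiter-Glo.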

Test [13] deals with sh-DNMT1 NCI-H82 cell (DNMT1 knocked down NCI-H82). The test can be described thus: Cell viability assay (Promega CellTiter-Glo), inhibitory effect on sh-DNMT1 NCI-H82 cell. The following applies: Homo sapiens, NCI-H82 with DNMT1 knocked down by shRNA. Summed up:
as §1

Test [14] concerns Con-NCI-H82 cell (NCI-H82 transfected with empty virus vector). The test can be described thus: Cell viability assay (Promega CellTiter-Glo), inhibitory effect on Con-NCI-H82 cell. Conditions: Homo sapiens; NCI-H82 transfected with empty virus vector (control); CellTiter-Glo; read-out: inhibitory effect on Con-NCI-H82 (IC50). In a few lines:
as §1

The mark [15] stands for this setting: 72 h, SF-126, 3 days of culture, Table 3, read-out: inhibitory effect on SF-126 (IC50).
[16] abbreviates: SF-126, 72 h, SF126, 3 days of culture, Table 4, read-out: inhibitory effect on brain cell line SF126 (IC50).
[17] abbreviates: Table 3, read-out: inhibitory effect on GB-1 (IC50).
[18] abbreviates: Table 4, read-out: inhibitory effect on brain cell line GB-1 (IC50).

Like-named read-outs stand apart in the source and are kept apart here.

For the compound `COc1ccc2c(Cc3ccc(C(C)C)cc3)c3[n+](cc2c1OC)CCc1cc2c(cc1-3)OCO2` [compound AB31789], the IC50 is 260 nM in test [1]; 3770 nM in test [2] (setting [15]); 3770 nM in test [2] (setting [16]); 2980 nM in test [3]; 210 nM in test [4]; 3220 nM in test [5] (setting [17]). Moreover, the IC50 in test [5] (setting [18]) was 3220 nM; in [6], 4510 nM; in [7] it was 460 nM; in [8], 300 nM; in test [9], 310 nM; in test [10], 510 nM. The IC50 in test [11] worked out at 560 nM; in test [12], 850 nM; in test [13], 1050 nM; in test [14], 300 nM.
For the compound `COc1ccc2cc3[n+](cc2c1OCC(=O)/C=C/c1ccc(C)cc1)CCc1cc2c(cc1-3)OCO2` [compound AB31790], the half-maximal inhibitory concentration (IC50) in test [1] was 820 nM; in [2] (setting [15]), 3260 nM; in [2] (setting [16]) it was 3260 nM; in test [3], 4750 nM; in test [4], 230 nM; in test [5] (setting [17]) it was 3730 nM. Moreover, the IC50 turned out to be 3730 nM in test [5] (setting [18]); 7820 nM in test [6]; 270 nM in test [7]; 430 nM in test [8]; 910 nM in test [9]; 260 nM in test [10]. The IC50 in [11] was 420 nM; in test [12] it was 1520 nM; in test [13], 1390 nM; in [14], 430 nM.
Consider `COc1ccc2c(Cc3ccc(C(F)(F)F)cc3)c3[n+](cc2c1OC)CCc1cc2c(cc1-3)OCO2` [compound AB31805], for which the IC50 in test [1] is 1840 nM; in test [2] (setting [15]) it was above 50000 nM; in [2] (setting [16]), above 50000 nM; in [3], 25800 nM; in [4], 1030 nM; in test [5] (setting [17]), above 50000 nM. Moreover, the IC50 in test [5] (setting [18]) is above 50000 nM; in [6] it was above 50000 nM; in test [7] it was 4820 nM; in test [8] it was 2110 nM; in test [9], 4110 nM; in test [10] it was 4800 nM. In addition, the IC50 in test [11] is 1350 nM; in [12], 4820 nM; in test [13], 6040 nM; in [14], 2110 nM.
In the case of `COc1ccc2cc3[n+](cc2c1OCCCCCCNC(=O)OC(C)(C)C)CCc1cc2c(cc1-3)OCO2` [compound AB31808], the half-maximal inhibitory concentration (IC50) came to 480 nM in [1]; 4580 nM in [2] (setting [15]); 4580 nM in [2] (setting [16]); 3900 nM in test [3]; 60 nM in test [4]; 5560 nM in test [5] (setting [17]). In addition, the IC50 in test [5] (setting [18]) turned out to be 5560 nM; in test [6], 7320 nM; in test [7] it was 1050 nM; in [8], 330 nM; in test [9] it was 280 nM; in test [10], 430 nM. In addition, the IC50 was determined as 390 nM in [11], 860 nM in [12], 1040 nM in test [13] and 330 nM in test [14].
Regarding `COc1ccc(CCCc2c3[n+](cc4c(OC)c(OC)ccc24)CCc2cc4c(cc2-3)OCO4)cc1` [compound AB31809], the IC50 was 530 nM in test [1]; 10100 nM in test [2] (setting [15]); 10100 nM in test [2] (setting [16]); 7880 nM in [3]; 160 nM in test [4]; 11800 nM in test [5] (setting [17]). Besides, the IC50 was determined as 11800 nM in test [5] (setting [18]); 15500 nM in test [6]; 990 nM in test [7]; 440 nM in [8]; 870 nM in test [9]; 1920 nM in test [10]. Besides, the half-maximal inhibitory concentration (IC50) was 560 nM in test [11], 1380 nM in test [12], 1860 nM in test [13] and 440 nM in test [14].

For orientation: IC50 means the midpoint of a concentration-inhibition curve.

The values above are taken from patent US20250195502A1, “APPLICATION OF TETRACYCLIC COMPOUND IN TREATMENT OF TUMORS” (SHANGHAI SHIJIANG BIOTECHNOLOGY CO., LTD, priority 2022, published 2025).
